# The supplement of paper PMC6045584
# ± gives the standard deviation of the averaged measurements.
# How the values were obtained:
# TIOGUANINE [1] = compound: T1, Nc1nc2[nH]cnc2c(=S)[nH]1 [TIOGUANINE]; assay: surviving fraction relative to DMSO-only wells; higher = less growth inhibition; conditions: exposure time: 5 days
# Procedure, shortened: (§1)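 Tumour cell lines in log phase were plated in 384-well plates at 250–500 cells per well, then, after 24 hours, exposed continuously for five days to inhibitors at 0.5, 1, 5, 10, 50, 100, 500 and 1000 nM. Viability came from CellTiter-Glo luminescence, and surviving fraction is that signal normalised to the median of DMSO-only wells. Plates were read after 10 minutes at room temperature, and each line, screened three times, was kept only when replicate Pearson r was >0.7 and median Z' was >0.3.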
# SAPACITABINE [2] = compound: T2, CCCCCCCCCCCCCCCC(=O)Nc1ccn([C@@H]2O[C@H](CO)[C@@H](O)[C@@H]2C#N)c(=O)n1 [SAPACITABINE]; assay: as above; conditions: exposure time: 5 days
# Procedure, shortened: as §1
# BI-2536 [3] = compound: T3, CC[C@@H]1C(=O)N(C)c2cnc(Nc3ccc(C(=O)NC4CCN(C)CC4)cc3OC)nc2N1C1CCCC1 [BI-2536]; assay: as above; conditions: exposure time: 5 days
# Procedure, shortened: as §1
# AFATINIB [4] = compound: T4, CN(C)C/C=C/C(=O)Nc1cc2c(Nc3ccc(F)c(Cl)c3)ncnc2cc1O[C@H]1CCOC1 [AFATINIB]; assay: as above; conditions: exposure time: 5 days
# Procedure, shortened: as §1
# SNX-5422 [5] = compound: T5, CC1(C)CC(=O)c2c(C(F)(F)F)nn(-c3ccc(C(N)=O)c(N[C@H]4CC[C@H](OC(=O)CN)CC4)c3)c2C1 [SNX-5422]; assay: as above; conditions: exposure time: 5 days
# Procedure, shortened: as §1
# CANERTINIB [6] = compound: T6, C=CC(=O)Nc1cc2c(Nc3ccc(F)c(Cl)c3)ncnc2cc1OCCCN1CCOCC1 [CANERTINIB]; assay: as above; conditions: exposure time: 5 days
# Procedure, shortened: as §1
# [7] = compound: Cn1cc(C2=Nc3cc(NC(=O)C(N)C4CCCCC4)cc4c3C2=CNNC4=O)cn1; assay: as above; conditions: exposure time: 5 days
# Procedure, shortened: as §1
# MDV3100 [8] = compound: T7, CNC(=O)c1ccc(N2C(=S)N(c3ccc(C#N)c(C(F)(F)F)c3)C(=O)C2(C)C)cc1F [MDV3100]; assay: as above; conditions: exposure time: 5 days
# Procedure, shortened: as §1
# TIOGUANINE [9] = compound: T1, TIOGUANINE; assay: area under dose-response curve of surviving fraction (unscaled, Aref=0) (surviving fraction x log10(nM)); higher = more resistant; conditions: exposure time: 5 days; dose range 0.5-1000 nM
# Procedure, shortened: (§2)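 Each tumour cell line was screened three times in 384-well plates, receiving eight inhibitor concentrations from 0.5 to 1000 nM for five days. CellTiter-Glo luminescence gave viability, normalised to DMSO-only wells. Using the drc R package, surviving fractions were fitted with 3-parameter logistic dose-response curves, and the unscaled activity area over log10 dose (Aref = 0) was taken as the area under the curve.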
# SAPACITABINE [10] = compound: T2, SAPACITABINE; assay: as above; conditions: exposure time: 5 days; dose range 0.5-1000 nM
# Procedure, shortened: as §2
# BI-2536 [11] = compound: T3, BI-2536; assay: as above; conditions: exposure time: 5 days; dose range 0.5-1000 nM
# Procedure, shortened: as §2
# AFATINIB [12] = compound: T4, AFATINIB; assay: as above; conditions: exposure time: 5 days; dose range 0.5-1000 nM
# Procedure, shortened: as §2
# SNX-5422 [13] = compound: T5, SNX-5422; assay: as above; conditions: exposure time: 5 days; dose range 0.5-1000 nM
# Procedure, shortened: as §2
# CANERTINIB [14] = compound: T6, CANERTINIB; assay: as above; conditions: exposure time: 5 days; dose range 0.5-1000 nM
# Procedure, shortened: as §2
# [15] = compound: Cn1cc(C2=Nc3cc(NC(=O)C(N)C4CCCCC4)cc4c3C2=CNNC4=O)cn1; assay: as above; conditions: exposure time: 5 days; dose range 0.5-1000 nM
# Procedure, shortened: as §2
# MDV3100 [16] = compound: T7, MDV3100; assay: as above; conditions: exposure time: 5 days; dose range 0.5-1000 nM
# Procedure, shortened: as §2
test system,measurement,setting,value
MDAMB231 BREAST,surviving fraction,TIOGUANINE [1]; 0.5 nM,0.988 ± 0.027
same,surviving fraction,TIOGUANINE [1]; 1 nM,0.994 ± 0.021
same,surviving fraction,TIOGUANINE [1]; 5 nM,1.01 ± 0.027
same,surviving fraction,TIOGUANINE [1]; 10 nM,0.994 ± 0.028
same,surviving fraction,TIOGUANINE [1]; 50 nM,1.01 ± 0.035
same,surviving fraction,TIOGUANINE [1]; 100 nM,1.01 ± 0.035
same,surviving fraction,TIOGUANINE [1]; 500 nM,0.74 ± 0.039
same,surviving fraction,TIOGUANINE [1]; 1000 nM,0.573 ± 0.016
same,surviving fraction,SAPACITABINE [2]; 0.5 nM,0.91 ± 0.016
same,surviving fraction,SAPACITABINE [2]; 1 nM,0.919 ± 0.022
same,surviving fraction,SAPACITABINE [2]; 5 nM,0.936 ± 0.031
same,surviving fraction,SAPACITABINE [2]; 10 nM,0.927 ± 0.034
same,surviving fraction,SAPACITABINE [2]; 50 nM,0.936 ± 0.043
same,surviving fraction,SAPACITABINE [2]; 100 nM,0.882 ± 0.053
same,surviving fraction,SAPACITABINE [2]; 500 nM,0.648 ± 0.03
same,surviving fraction,SAPACITABINE [2]; 1000 nM,0.516 ± 0.019
same,surviving fraction,BI-2536 [3]; 0.5 nM,0.975 ± 0.02
same,surviving fraction,BI-2536 [3]; 1 nM,0.954 ± 0.01
same,surviving fraction,BI-2536 [3]; 5 nM,0.425 ± 0.015
same,surviving fraction,BI-2536 [3]; 10 nM,0.385 ± 0.011
same,surviving fraction,BI-2536 [3]; 50 nM,0.39 ± 0.011
same,surviving fraction,BI-2536 [3]; 100 nM,0.391 ± 0.0073
same,surviving fraction,BI-2536 [3]; 500 nM,0.338 ± 0.013
same,surviving fraction,BI-2536 [3]; 1000 nM,0.245 ± 0.0063
same,surviving fraction,AFATINIB [4]; 0.5 nM,1.05 ± 0.026
same,surviving fraction,AFATINIB [4]; 1 nM,1.05 ± 0.028
same,surviving fraction,AFATINIB [4]; 5 nM,1.06 ± 0.037
same,surviving fraction,AFATINIB [4]; 10 nM,1.05 ± 0.027
same,surviving fraction,AFATINIB [4]; 50 nM,1.04 ± 0.03
same,surviving fraction,AFATINIB [4]; 100 nM,0.995 ± 0.025
same,surviving fraction,AFATINIB [4]; 500 nM,0.668 ± 0.013
same,surviving fraction,AFATINIB [4]; 1000 nM,0.335 ± 0.021
same,surviving fraction,SNX-5422 [5]; 0.5 nM,0.971 ± 0.021
same,surviving fraction,SNX-5422 [5]; 1 nM,0.998 ± 0.034
same,surviving fraction,SNX-5422 [5]; 5 nM,1.01 ± 0.035
same,surviving fraction,SNX-5422 [5]; 10 nM,1.02 ± 0.018
same,surviving fraction,SNX-5422 [5]; 50 nM,0.65 ± 0.032
same,surviving fraction,SNX-5422 [5]; 100 nM,0.455 ± 0.03
same,surviving fraction,SNX-5422 [5]; 500 nM,0.0989 ± 0.0031
same,surviving fraction,SNX-5422 [5]; 1000 nM,0.0988 ± 0.0026
same,surviving fraction,CANERTINIB [6]; 0.5 nM,0.93 ± 0.033
same,surviving fraction,CANERTINIB [6]; 1 nM,0.937 ± 0.027
same,surviving fraction,CANERTINIB [6]; 5 nM,0.956 ± 0.022
same,surviving fraction,CANERTINIB [6]; 10 nM,0.946 ± 0.031
same,surviving fraction,CANERTINIB [6]; 50 nM,0.986 ± 0.021
same,surviving fraction,CANERTINIB [6]; 100 nM,0.989 ± 0.029
same,surviving fraction,CANERTINIB [6]; 500 nM,0.874 ± 0.02
same,surviving fraction,CANERTINIB [6]; 1000 nM,0.746 ± 0.039
same,surviving fraction,[7]; 0.5 nM,0.95 ± 0.016
same,surviving fraction,[7]; 1 nM,0.949 ± 0.031
same,surviving fraction,[7]; 5 nM,0.964 ± 0.015
same,surviving fraction,[7]; 10 nM,0.953 ± 0.032
same,surviving fraction,[7]; 50 nM,0.908 ± 0.029
same,surviving fraction,[7]; 100 nM,0.896 ± 0.019
same,surviving fraction,[7]; 500 nM,0.544 ± 0.04
same,surviving fraction,[7]; 1000 nM,0.278 ± 0.01
same,surviving fraction,MDV3100 [8]; 0.5 nM,0.961 ± 0.034
same,surviving fraction,MDV3100 [8]; 1 nM,0.954 ± 0.035
same,surviving fraction,MDV3100 [8]; 5 nM,0.978 ± 0.022
same,surviving fraction,MDV3100 [8]; 10 nM,0.969 ± 0.012
same,surviving fraction,MDV3100 [8]; 50 nM,0.988 ± 0.034
same,surviving fraction,MDV3100 [8]; 100 nM,0.997 ± 0.025
same,surviving fraction,MDV3100 [8]; 500 nM,0.96 ± 0.026
same,surviving fraction,MDV3100 [8]; 1000 nM,0.944 ± 0.014
same,area under dose-response curve,TIOGUANINE [9],3.15
same,area under dose-response curve,SAPACITABINE [10],2.9
same,area under dose-response curve,BI-2536 [11],1.56
same,area under dose-response curve,AFATINIB [12],3.07
same,area under dose-response curve,SNX-5422 [13],2.3
same,area under dose-response curve,CANERTINIB [14],3.15
same,area under dose-response curve,[15],2.84
same,area under dose-response curve,MDV3100 [16],3.22
